Data from patent publication US10092540B2, “Method of treatment of a mucopolysaccharidosis” (INVENTIVA, priority 2013, dated 2018).

Experiments:
male C57B16/J mice [1] = assay: Urinary sulfated GAG levels in tilorone-induced mucopolysaccharidosis mouse model; assay type: in vivo
Procedure: (§1) The effect of odiparcil on GAG storage was assessed in a model of mucopolysaccharidosis induced by Tilorone. Chronic administration of tilorone induces GAGs accumulation in various organs including liver, spleen, and kidney (Fischer et al. 1996, 315 (Pt 2):369-375; Prokopek 1991, 42:2187-2191). Tilorone (50 mg/kg/day) was administered via drinking water and odiparcil at 30 or 100 mg/kg/day (corresponding to 15 mg/kg and 50 mg/kg given bid, respectively) was given by oral gavage. Tilorone, odiparcil or vehicle were administered to male C57B16/J mice for 28 days.
After 21 days of treatment, urine were collected over a 24 hour period by placing the animal in diuresis/metabolic cages. The activity of odiparcil was assessed by quantifying total sulfated GAG levels in the collected urine. After a 10 to 20 fold dilution of the urine in water, sulfated glycosaminoglycan concentrations were measured using Blyscan™ assay from Biocolor (UK) following the manufacturer's instructions. Creatinine levels were also assessed on undiluted urine samples, using the CREATININE (Jaffé) kit (ref 981811) from ThermoFisher according to the manufacturer's instructions. Urinary sulfated GAG levels were normalized by creatinine levels. The data were analyzed statistically by one-way analysis of variance followed by a Tukey's test between all groups: ***: p<0.001 for vehicle/vehicle, and $$$: p<0.001 for tilorone/vehicle.

male C57B16/J mice [2] = assay: Liver total sulfated GAG levels in tilorone-induced mucopolysaccharidosis mouse model; assay type: in vivo
Procedure: as §1
At the end of the study period, animals were anesthetized and sacrificed. The liver of each animal was then collected, rinsed in physiological serum, blotted in absorbent paper and weighted. It was then cut in pieces and cooled by snap-freezing in liquid nitrogen before being stored at −80° C. The activity of odiparcil was assessed by quantifying total sulfated glycosaminoglycan (GAG) levels in the liver. Sulfated glycosaminoglycan concentration was measured using the Blyscan™ assay from Biocolor (UK) following the manufacturer's instructions. The data were statistically analyzed by one-way analysis of variance followed by a Tukey's test between all groups: ***: p<0.001 vs vehicle/vehicle, and $: p<0.05 vs tilorone/vehicle.

[3] = system: Bovine aortic endothelial cells (ECACC 92010601); assay: 35S-labeled GAG level in culture supernatant of bovine aortic endothelial cells; assay type: cell-based
Procedure: Bovine aortic endothelial cells (ECACC 92010601), cultured in 6-well plates, were incubated for 24 h in the presence of ^35S sodium sulfate (10 μci/ml) and of odiparcil solubilized in DMSO at various concentrations (1-10 μM; 0.1% final concentration of DMSO). The culture supernatants were recovered and the cell layers were rinsed with phosphate buffer (PBS). The culture supernatants and the rinsing solutions were combined in tubes. A solution of unlabeled dermatan sulfate (200 μg) was then added in order to serve as an entraining agent. The unincorporated ^35S was then removed by gel filtration on Sephadex G25 columns, the GAGs being eluted in the column exclusion fraction (V0). […] After centrifugation, the alcoholic precipitates were redissolved in 0.9% sodium chloride and then the radioactivity was measured on an aliquot fraction after addition of scintillation fluid in counting vials.
In order to type the GAGs produced in the supernatants from cells in culture, the redissolved alcoholic precipitates were treated with chondroitinase ABC (Proteus vulgaris) in a proportion of 0.5 mU/μL, for 3 h at 37° C. […] After centrifugation, the alcoholic precipitates were redissolved in 0.9% sodium chloride and then the radioactivity was measured on an aliquot fraction after addition of scintillation fluid in counting vials. […]

[4] = system: Normal human dermal fibroblasts (BIOAlternatives PF2); assay: Total GAG synthesis (3H-glucosamine incorporation) by normal human dermal fibroblasts; assay type: cell-based; conditions: 10 μM, 72 h
Procedure: Normal human dermal fibroblasts (BIOAlternatives PF2) were cultured in 96-well plates for 24 h. The culture medium was then replaced with culture medium containing or not containing (control) odiparcil at various concentrations (1 μM, 3 μM, 10 μM) or the TGF-β reference at 10 ng/ml (positive control), and then the cells were incubated for 72 h with addition of the ^3H-glucosamine radioactive label for evaluating total GAG synthesis. At the end of the incubation, a chaotropic buffer was added to the wells of the culture plates in order to lyse the fibroblasts. The total GAGs of the cell lysates were then purified by ion exchange chromatography (Q-Sepharose column). The radioactivity incorporated into the anionic fractions was measured by liquid scintillation.

[5] = system: GM00034B fibroblast cells, isolated from an MPS I patient; assay: Intracellular chondroitin sulfate content (immunofluorescence) in fibroblasts from an MPS I patient; assay type: cell-based, human; conditions: 72 h
Procedure: (§2) Human dermal fibroblasts (GM00034B fibroblast cells, isolated from an MPS I patient and GM00031 fibroblast cells, isolated from an unaffected donor) were obtained from the Coriell Institute for Medical Research. Cells were cultured in 96-well plates for 24 h. The culture medium was then replaced with culture medium containing or not containing (vehicle) odiparcil at various concentrations (0.03, 0.1, 0.3, 1, 3, or 10 μM), and then the cells were incubated for 72 h. After incubation, culture media were discarded and the cells were rinsed with PBS, then fixed in PFA 4%. A part of the wells was then incubated for 2 hours at 37° C. with an enzymatic solution of chondroitinase ABC (CSase). After 2 hours of digestion with CSase ABC buffers were discarded, then the cells were rinsed with PBS and permeabilized with PBS-Triton 0.1%. The cells were then labeled using a primary anti-chondroitin sulfate antibody.

[6] = system: GM00031 fibroblast cells, isolated from an unaffected donor; assay: Intracellular chondroitin sulfate content (immunofluorescence) in control fibroblasts; assay type: cell-based, human; conditions: 72 h
Procedure: as §2

[7] = system: GM00034B and GM01391 fibroblast cells, isolated from two MPS I patients; assay: CS, DS and HS content by UPLC MSMS in MPS I fibroblasts; assay type: cell-based, human; conditions: 10 μM, 72 h, FIG. 4
Procedure: (§3) Human dermal fibroblasts (GM00034B and GM01391 fibroblast cells, isolated from two MPS I patients and GM03181 and GM00615 fibroblasts isolated from two MPS II patients) were obtained from the Coriell Institute for Medical Research. Cells were cultured in T25-flask for 24 h. The culture medium was then replaced with culture medium containing or not containing (vehicle) odiparcil at 10 μM, and then the cells were incubated for 72 h. After incubation, culture media were discarded and the cells were rinsed with PBS, then scrapped in PBS. Cells were then collected by centrifugation and cell pellets were frozen until further analysis. Quantitation of Heparan sulfate (HS), Dermatan sulfate (DS) and Chondroitin sulfate (CS) were performed using UPLC MSMS using a method adapted from method published in Zhang et al. 2015. Glycosaminoglycan values are expressed as mean+SD in μg GAG species per milligram protein.

[8] = system: GM03181 and GM00615 fibroblasts isolated from two MPS II patients; assay: CS, DS and HS content by UPLC MSMS in MPS II fibroblasts; assay type: cell-based, human; conditions: 10 μM, 72 h, FIG. 4
Procedure: as §3

New Zealand Rabbits = assay: Plasma GAG level and disaccharide composition in rabbits after oral administration; assay type: in vivo, rabbit; conditions: 400 mg/kg oral
Procedure: Odiparcil was administered Orally to New Zealand Rabbits at the Dose of 400 mg/kg. 4 h after the administration, the animals were anesthetized and blood samples were taken on citrate tubes after catherization of the carotid artery. After centrifugation, the plasma was removed and frozen. The plasma GAGs were isolated after digestion of the proteins with Pronase E, for 48 h at 50° C. The proteins and the protein residues were precipitated by adding trichloroacetic acid and incubated overnight at 4° C. After centrifugation, the supernatants were collected, and then dialyzed against 100 volumes of phosphate buffer, for 48 h at 4° C. A solution of cetylpyridinium chloride (0.1% final concentration) was added to the dialysates in order to precipitate the GAGs, for 24 h at ambient temperature. The samples were then centrifuged and the supernatant was removed. The precipitate obtained was redissolved in 2M sodium chloride and the GAGs were precipitated with 5 volumes of 95% ethanol. After centrifugation, the alcoholic precipitates were redissolved in 0.9% sodium chloride and desalified on a Sephadex G25 column (PD10).
The plasma GAGs extracted were quantified by assaying the uronic acid content, modified Bitter and Muir carbazole method. The qualitative analysis of the plasma GAG extracts was carried out by HPLC of the disaccharides obtained after enzymatic digestion with chrondroitinase ABC from Proteus vulgaris and chrondroitinase AC from Arthrobacter aurescens.

[9] = tilorone 50 mg/kg/day via drinking water, vs vehicle/vehicle

For `CCN(CC)CCOc1ccc2c(c1)C(=O)c1cc(OCCN(CC)CC)ccc1-2` [Tilorone, reference compound], the “GAG levels in urine” value (male C57B16/J mice [1]; [9]) was “increased” and the “GAG levels in the liver” value (male C57B16/J mice [2]; [9]) was “increased”.

With `Cc1cc(=O)oc2cc(O[C@@H]3SC[C@@H](O)[C@H](O)[C@H]3O)ccc12` [Odiparcil, 4-methyl-2-oxo-2H-1-benzopyran-7-yl-5-thio-β-D-xylopyranoside] the “type of GAGs synthesized by the cells in culture (enzymatic digestions)” value ([3]; chondroitinase ABC / heparinase II digestion) was “predominantly of chondroitin sulfate type”, the “level of 35S-labeled GAGs in the culture supernatant” value ([3]; odiparcil 1-10 μM, 24 h, FIG. 1) was “increases, in a dose-dependent manner” and the “total GAG synthesis (dose dependence)” value ([4]; 1 μM, 3 μM, FIG. 2) was “stimulates, in a dose-dependent manner”. The “stimulation of total GAG synthesis vs control” value [4] was “+94%”, the “intracellular chondroitin sulfate (CS) content” value ([5]; 0.03-10 μM, FIG. 3) was “inhibited, in a dose-dependent manner” and the “IC50 for reduction of intracellular CS” value [5] was “in the μM range”. The “extent of reduction of intracellular CS” value [5] was “complete reduction”, the “intracellular chondroitin sulfate (CS) content” value ([6]; 0.03-10 μM, FIG. 3) was “inhibited, in a dose-dependent manner” and the “IC50 for reduction of intracellular CS” value [6] was “in the μM range”. The “extent of reduction of intracellular CS” value [6] was “complete reduction”, the “chondroitin sulfate (CS) content” value [7] was “inhibited” and the “dermatan sulfate (DS) content” value [7] was “inhibited”. For the same compound, the “heparan sulfate (HS) content” value [7] was “inhibited”, the “chondroitin sulfate (CS) content” value [8] was “inhibited” and the “dermatan sulfate (DS) content” value [8] was “inhibited”. The “heparan sulfate (HS) content” value [8] was “inhibited”, the “Δdi-0S (%) nonsulfated disaccharides” value (New Zealand Rabbits; rabbit plasma GAGs, 4 h) was 18.6% and the “Δdi-4S (%) 4-sulfated disaccharides” value (New Zealand Rabbits; rabbit plasma GAGs, 4 h) was 26%. The “Δdi-4S DS (%) 4-sulfated disaccharides (dermatan sulfate component)” value (New Zealand Rabbits; rabbit plasma GAGs, 4 h) was 20.5%, the “Δdi-6S (%) 6-sulfated disaccharides (galactosamine-6-sulfate component)” value (New Zealand Rabbits; rabbit plasma GAGs, 4 h) was 30.8% and the “Δdi-UA2S (%) 2UA-sulfated disaccharides” value (New Zealand Rabbits; rabbit plasma GAGs, 4 h) was 4.1%. The “factor of increase of plasma GAG level compared with control animals” value (New Zealand Rabbits; rabbit, 4 h) was 5, the “μg UA/ml plasma (plasma GAG level via uronic acid content)” value (New Zealand Rabbits; rabbit, 4 h after administration) was 11.4 μg UA/ml and the “statistical significance of effect on urinary sulfated GAG levels vs tilorone/vehicle” value (male C57B16/J mice [1]; odiparcil 30 and 100 mg/kg/day, p<0.001) was “statistically significant at both tested doses”. For the same compound, the “sulfated GAG levels in urine (normalized by creatinine)” value (male C57B16/J mice [1]; odiparcil 30 or 100 mg/kg/day oral gavage with tilorone, urine after 21 days, FIG. 5) was “increased sulfated GAG levels in urine in a dose-dependent manner”, the “statistical significance of effect on total GAG liver content vs tilorone/vehicle” value (male C57B16/J mice [2]; odiparcil 100 mg/kg/day, p<0.05) was “statistically significant” and the “tilorone-induced accumulation of liver total GAG levels” value (male C57B16/J mice [2]; odiparcil 30 or 100 mg/kg/day oral gavage with tilorone, end of study, FIG. 6) was “decreased”.
